Earlier results in article PMC11187573, “Identification of SARS-CoV-2 Mpro inhibitors through deep reinforcement learning for de novo drug design and computational chemistry approaches” (RSC Medicinal Chemistry, 2024).
Read-outs that look alike come from different tables or passages of the source.

Test system: Mpro
Details: ML dataset, cited from earlier work
[1] = Origin COVID_Moonshot, ref COVID Moonshot

Cn1sc(=O)n(Cc2ccccc2)c1=O [CHEMBL284861, CN(C(N1Cc2ccccc2)=O)SC1=O, reference compound]
IC50 (Origin ChEMBL, ref ChEMBL): 0.14 µM

Cc1nn(C)c(NCc2ccc(-c3cccs3)s2)c1[N+](=O)[O-] [CHEMBL375130]
IC50 (Origin ChEMBL, ref ChEMBL): 20 µM

CSc1[nH]nc(NC(=O)c2cccs2)c1S(=O)(=O)c1ccccc1 [CHEMBL378700]
IC50 (Origin ChEMBL, ref ChEMBL): 15 µM

O=[N+]([O-])c1cc(C(F)(F)F)ccc1S(=O)(=O)c1ccc(Cl)cc1 [CHEMBL380403]
IC50 (Origin ChEMBL, ref ChEMBL): 12 µM

O=C(Oc1cncc(Cl)c1)c1cc2ccccc2o1 [CHEMBL426898, O=C(c1cc(cccc2)c2o1)Oc1cc(Cl)cnc1, reference compound]
IC50 (Origin ChEMBL, ref ChEMBL): 0.17 µM

Cc1noc(NC(=O)c2ccc(-c3cc(C(F)(F)F)nn3C)s2)c1[N+](=O)[O-] [CHEMBL427404, Cc1noc(NC(c2ccc(-c3cc(C(F)(F)F)nn3C)s2)=O)c1[N+]([O-])=O, reference compound]
IC50 (Origin ChEMBL, ref ChEMBL): 5 µM

Nc1ccc2cc3ccc(N)cc3nc2c1 [CHEMBL465704, CHEMBL55400]
IC50 (Origin ChEMBL, ref ChEMBL): 0.595 µM

CC[C@H](CO)Nc1nc(NCc2ccc(-c3ccccn3)cc2)c2ncn(C(C)C)c2n1 [CHEMBL518800, CC[C@H](CO)Nc1nc(NCc(cc2)ccc2-c2ncccc2)c2ncn(C(C)C)c2n1, reference compound]
IC50 (Origin ChEMBL, ref ChEMBL): 0.84 µM

C/N=c1/nc(-c2ccccc2)n(-c2ccccc2)s1 [CHEMBL1188627, C/N=C(/N=C1c2ccccc2)\SN1c1ccccc1, reference compound]
IC50 (Origin ChEMBL, ref ChEMBL): 0.98 µM

Cc1ccc(C)c(-n2sc3cc(F)ccc3c2=O)c1 [CHEMBL1725120, Cc1cc(N2Sc(cc(cc3)F)c3C2=O)c(C)cc1, reference compound]
IC50 (Origin ChEMBL, ref ChEMBL): 0.02 µM

CCOC(=O)Cc1ccc(-c2ccccc2)cc1 [CHEMBL1886408, CCOC(Cc(cc1)ccc1-c1ccccc1)=O, reference compound]
IC50 (Origin ChEMBL, ref ChEMBL): 0.2 µM

Cc1ccc(-n2sc(=O)n(Cc3ccc(F)cc3)c2=O)cc1 [CHEMBL1917204, Cc(cc1)ccc1N(C(N1Cc(cc2)ccc2F)=O)SC1=O, reference compound]
IC50 (Origin ChEMBL, ref ChEMBL): 0.19 µM

COc1ccc(N(Cc2cccc(Cl)c2)C(=O)Cn2nnc3ccccc32)cc1 [CHO-MSK-00c5269a-2]
IC50 [1]: 3.4 µM

O=C(Cn1nnc2ccccc21)N(Cc1cccc(Cl)c1)c1ccc(N2CCCCC2)cc1 [CHO-MSK-00c5269a-5]
IC50 [1]: 4.83 µM

Cc1ccncc1NC(=O)Cc1cc(Cl)cc(OCc2nnc(C3CCCCC3)o2)c1 [CHO-MSK-6e55470f-7]
IC50 [1]: 17 µM

O=C(Nc1cnccc1Cl)c1cc(Cl)ccc1O [CHR-SOS-7098f804-10]
IC50 [1]: 24.2 µM

O=C(Nc1cccnc1)c1cc(Cl)ccc1-c1ccccc1 [CHR-SOS-7098f804-14]
IC50 [1]: 39.1 µM

N#Cc1cccc(NC(=O)Nc2cncc(N)c2)c1 [DAR-DIA-23aa0b97-8]
IC50 [1]: 54.3 µM

N#Cc1cccc(NC(=O)Nc2c[nH]c3ncccc23)c1 [DAR-DIA-23aa0b97-11]
IC50 [1]: 63.6 µM

CC(=O)NC(C)c1cc(F)cc(Cl)c1 (centres unmarked) [DAV-CRI-3edb475e-6, Mpro-x10172]
IC50 [1]: 24.4 µM

Cc1ccncc1NC(=O)N(Cc1ccccc1)c1cccc(Cl)c1 [EDG-MED-0da5ad92-20]
IC50 [1]: 22.9 µM

O=C(Nc1cncc2[nH]c(=O)[nH]c12)C1CCOc2ccc(Cl)cc21 (centres unmarked) [EDG-MED-0e5afe9d-2]
IC50 [1]: 62.8 µM

NS(=O)(=O)c1[nH]ncc1C(=O)NC[C@@]1(C(=O)Nc2cncc3ccccc23)CCOc2ccc(Cl)cc21 [EDJ-MED-4c7486ba-8]
IC50 [1]: 1.99 µM

COCC1(C(=O)Nc2cncc3ccccc23)CCOc2cc(Cl)c(Cl)cc21 (centres unmarked) [EDJ-MED-37aac4bd-2]
IC50 [1]: 4.04 µM

O=C(Cc1cccc(Cl)c1)Nc1cncc2c1OCCC2 [EDJ-MED-976da9a6-1]
IC50 [1]: 10.9 µM

Cc1ccncc1N1CCC(c2cccc(Cl)c2)S1(=O)=O (centres unmarked) [EDJ-MED-49816e9b-4]
IC50 [1]: 76.6 µM

Cc1cc(C(F)(F)F)nc2n[nH]c(NC(=O)Cc3cccc(Cl)c3)c12 [EDJ-MED-c8e7a002-5]
IC50 [1]: 90.7 µM

O=C(Cc1cccc(Cl)c1)Nc1n[nH]c2ccc(F)cc12 [EDJ-MED-c8e7a002-9]
IC50 [1]: 94 µM

O=C(Cc1cccc(Cl)c1)Nc1[nH]nc2cccc(F)c12 [EDJ-MED-c8e7a002-13]
IC50 [1]: 90.6 µM

C[C@H]1C[C@@H](C(=O)Nc2cncc3ccccc23)c2cc(Cl)ccc2O1 [EDJ-MED-e4b030d8-3]
IC50 [1]: 32.7 µM

Cc1c(Cl)ccc2c1[C@H](C(=O)Nc1cncc3ccccc13)CCO2 [EDJ-MED-e4b030d8-8]
IC50 [1]: 3.67 µM

Cc1ccncc1N1CCC(c2cccc(Cl)c2)C1=O (centres unmarked) [EDJ-MED-e66f2cc5-1]
IC50 [1]: 28.8 µM

O=C(c1cc(=O)[nH]c2ccccc12)N1CCN(c2cccc(C(F)(F)F)c2)CC1 [ERI-UCB-a0b0dbcb-4]
IC50 [1]: 4.72 µM

O=C(c1cc(=O)[nH]c2ccccc12)N1CCN(Cc2cccc(Cl)c2)CC1 [ERI-UCB-a0b0dbcb-12]
IC50 [1]: 4.57 µM

O=C(c1cc(=O)[nH]c2ccccc12)N1CCN(Cc2cccc(C(F)(F)F)c2)CC1 [ERI-UCB-a0b0dbcb-13]
IC50 [1]: 34.2 µM

O=C(Cc1cncc2ccccc12)Nc1cc(Cl)cc(OC2CCC(=O)N2)c1 (centres unmarked) [ERI-UCB-ce40166b-6]
IC50 [1]: 28.9 µM

O=C(Nc1cncc2ccccc12)C1COc2c(Cl)cccc21 (centres unmarked) [FRA-DIA-c7e803f4-1]
IC50 [1]: 5.06 µM

COc1ccc2c(NC(=O)C3CCOc4ccc(Cl)cc43)noc2c1 (centres unmarked) [JAG-UCB-52b62a6f-10]
IC50 [1]: 57.5 µM

O=C(Nc1n[nH]c2ccnc(Br)c12)C1CCOc2ccc(Cl)cc21 (centres unmarked) [JAG-UCB-52b62a6f-15]
IC50 [1]: 86.8 µM

O=C(Nc1n[nH]c2ccncc12)C1CCOc2ccc(Cl)cc21 (centres unmarked) [JAG-UCB-52b62a6f-16]
IC50 [1]: 70.3 µM

O=C(Nc1cnccc1CO)C1COc2ccc(Cl)cc21 (centres unmarked) [JAG-UCB-a3ef7265-3, Mpro-x10338]
IC50 [1]: 30.4 µM

O=C(Nc1cnccc1CO)[C@@H]1COc2ccc(Cl)cc21 [JAG-UCB-a3ef7265-3]
IC50 [1]: 30.4 µM

O=C(Cc1cccc(Cl)c1)Nc1nnn[nH]1 [JAN-GHE-5a013bed-11]
IC50 [1]: 45.3 µM

O=C(Cc1cncc2ccccc12)N1CCOc2ccc(Cl)cc21 [JOH-UNI-ea1df7a8-1]
IC50 [1]: 4.85 µM

O=C(Nc1c[nH]c(=O)c2ccccc12)C1CCOc2ccc(Cl)cc21 (centres unmarked) [JOH-UNI-f51e3bbc-1]
IC50 [1]: 91.6 µM

CC(C)Cn1cc(NC(=O)NCc2ccco2)c2ccccc2c1=O [LON-WEI-4d77710c-44]
IC50 [1]: 29.6 µM

COC(=O)c1c(C)nn(C(=O)c2cccs2)c1-c1snnc1C [LON-WEI-4d77710c-66]
IC50 [1]: 3.12 µM

O=C(Nc1ccc(Cl)cc1)[C@@H](c1ccccc1)N1Cc2ccccc2C1=O [LON-WEI-b2874fec-16]
IC50 [1]: 82.3 µM

O=C(NCc1cccs1)[C@@H](c1ccccc1)N1Cc2ccccc2C1=O [LON-WEI-f8a636e2-1]
IC50 [1]: 90.7 µM

COc1ccccc1OCCC(=O)Nc1cncc2ccccc12 [MAR-UCB-f313ec4d-3]
IC50 [1]: 90.9 µM

CN(C)C(C(=O)Nc1cncc2ccccc12)c1ccc(Cl)c(Cl)c1 (centres unmarked) [MAT-POS-1f3f1a6f-2]
IC50 [1]: 4.27 µM

CC(=O)NC(C(=O)Nc1cncc2ccccc12)c1ccc(Cl)c(Cl)c1 (centres unmarked) [MAT-POS-1f3f1a6f-3]
IC50 [1]: 4.05 µM

O=C(Nc1cncc2ccccc12)C(NCC1CC1)c1ccc(Cl)c(Cl)c1 (centres unmarked) [MAT-POS-1f3f1a6f-4]
IC50 [1]: 1.75 µM

O=C(Cc1cc(Cl)cc(OC2CC(=O)N2)c1)Nc1cc(=O)[nH]c2ccccc12 (centres unmarked) [MAT-POS-3b92565d-6]
IC50 [1]: 91.1 µM

CN(C)C(=O)CC1(C(=O)Nc2cncc3ccccc23)CCOc2ccc(Cl)cc21 (centres unmarked) [MAT-POS-5d65ec79-1]
IC50 [1]: 2.92 µM

OC(Cc1cccc(Cl)c1)Cn1cncn1 (centres unmarked) [MAT-POS-6da3605a-2]
IC50 [1]: 82.2 µM
